# Assay results published in PubChem BioAssay AID2060503 (Molecular Pharmacology Branch, DTP, NCI, 2025).
# System: 817829-284-R-J1-PDC complex spheroids, viability
# Assay: Anticancer human tumor 817829-284-R-J1-PDC patient-derived colon adenocarcinoma cell line growth inhibition [GQUAD]
# Details: for IC50: curve of first compound; for viability, T/C: stronger effect = lower value
# Source text: DNA G-quadruplex Stabilizer Agents in Combinations in Complex Spheroids
# A high-throughput screen of multi-cell type tumor spheroids was designed to identify active combinations of DNA G-quadruplex stabilizer agents and targeted small molecules. Complex spheroids include a stromal component modeled by human endothelial cells (HUVEC) and fibroblasts modeled by human mesenchymal stem cells (MSCs). The concentration ranges selected for each drug and investigational agent were based upon clinically achievable concentrations if the clinical Cmax of the agent was known.
# Compounds. The drugs and investigational agents: pidnarulex (CX-5461; NSC782164), APTO-253 (NSC789042), BRACO-19 (NSC847499), peposertib (NSC802822), ceralasertib (NSC780249), elimusertib (NSC800525), camonsertib (NSC841442), AZD-1390 (NSC803789), olaparib (NSC753686), talazoparib (NSC767125), ART-558 (NSC835418), sotorasib (NSC818433), MRTX-1133 (NSC836407), SN-38 (NSC673596), topotecan (NSC609699), etoposide (NSC141540), doxorubicin (NSC123127), gemcitabine (NSC613327), 5-fluorouracil (NSC19893), paclitaxel (NSC125973), vemurafenib (NSC761431), panobinostat (NSC761190), R-306465 (JNJ-16241199; NSC773264), adavosertib (NSC754352), TP-3654 (NSC805149), carboplatin (NSC241240), KSQ-4279 (NSC840948), and staurosporine (NSC755774) were obtained from the National Cancer Institute (NCI) Developmental Therapeutics Program Chemical Repository (34). The FDA-approved anticancer drug set is available from the NCI Developmental Therapeutics Program. […] The stock solutions were prepared in dimethyl sulfoxide (DMSO, Sigma-Aldrich, St. Louis, MO, cat. D2650) at 800-fold the tested concentration and stored at -70 degrees C prior to their use. All drugs and investigational agents were tested over a range starting from a high concentration at or near the clinical Cmax and decreasing in half-log increments. If the clinical Cmax for an agent had not been determined, the highest concentration tested was 10 microM.
# 2.3 Cell Culture. All cells were maintained in an incubator at 37 degrees C and 5% CO2 with 95% humidity. The PDC lines were cultured according to standard operating procedures established by the NCI PDMR. All PDCs were thawed and cultured in Matrigel-coated flasks prepared with a working solution of 1X Ham's F-12 nutrient mix, without supplementation (Invitrogen, cat. 11765054), 100 U/mL penicillin-streptomycin (Invitrogen, cat. 15140122), and 2.5% Matrigel (Corning Inc., cat. 354248) for the first three passages. The 857933-349-R-J2-PDC line was cultured in 6C/Colon 1B media, which includes advanced DMEM/F-12 (Thermo Fisher Scientific, cat. 12634028), 10 mM HEPES (Thermo Fisher Scientific, cat. 15630080), 1X GlutaMAX supplement (Thermo Fisher Scientific, cat. 35050061), 0.1 mg/mL primocin (InvivoGen, cat. ant-pm-2), 10% defined fetal bovine serum, heat inactivated (HyClone Laboratories Inc., cat. SH30070.03HI), 50% L-WRN conditioned media (ATCC, cat. CRL-3276), 1.25 mM N-Acetyl-L-cysteine (Sigma-Aldrich, cat. A9165), 10 mM nicotinamide (Sigma-Aldrich, cat. N0636), 1X B-27 supplement (Thermo Fisher Scientific, cat. 17504044), 1X N-2 supplement (Thermo Fisher Scientific, cat. 17502048), 10 microM Y-27632 dihydrochloride (Tocris Bioscience, cat. 1254), and 50 ng/mL human EGF recombinant protein (Thermo Fisher Scientific, cat. PHG0311). The 485176-168-R4-J1-PDC line was cultured in Panc media, which includes all 6C/Colon 1B media components plus 100 ng/mL human FGF-10 (Thermo Fisher Scientific, cat. 100-26), 500 nM SB-431542 (Selleckchem, cat. S1067), and gastrin (Tocris, cat. 3006).
# […]
# [1] = second compound 0.0316 µM, first compound 0.0316 µM
# [2] = second compound 0.0316 µM, first compound 0.1 µM
# [3] = second compound 0.0316 µM, first compound 0.316 µM
# [4] = second compound 0.0316 µM, first compound 1 µM
# [5] = second compound 0.0316 µM, first compound 3.16 µM
# [6] = second compound 0.0316 µM, first compound 10 µM
# [7] = second compound 0.1 µM, first compound 0.0316 µM
# [8] = second compound 0.1 µM, first compound 0.1 µM
# [9] = second compound 0.1 µM, first compound 0.316 µM
# [10] = second compound 0.1 µM, first compound 1 µM
# [11] = second compound 0.1 µM, first compound 3.16 µM
# [12] = second compound 0.1 µM, first compound 10 µM
# [13] = second compound 0.316 µM, first compound 0.0316 µM
# [14] = second compound 0.316 µM, first compound 0.1 µM
# [15] = second compound 0.316 µM, first compound 0.316 µM
# [16] = second compound 0.316 µM, first compound 1 µM
# [17] = second compound 0.316 µM, first compound 3.16 µM
# [18] = second compound 0.316 µM, first compound 10 µM
# [19] = second compound 1 µM, first compound 0.0316 µM
# [20] = second compound 1 µM, first compound 0.1 µM
# [21] = second compound 1 µM, first compound 0.316 µM
# [22] = second compound 1 µM, first compound 1 µM
# [23] = second compound 1 µM, first compound 3.16 µM
# [24] = second compound 1 µM, first compound 10 µM
# [25] = second compound 3.16 µM, first compound 0.0316 µM
# [26] = second compound 3.16 µM, first compound 0.1 µM
# [27] = second compound 3.16 µM, first compound 0.316 µM
# [28] = second compound 3.16 µM, first compound 1 µM
# [29] = second compound 3.16 µM, first compound 3.16 µM
# [30] = second compound 3.16 µM, first compound 10 µM
# [31] = second compound 10 µM, first compound 0.0316 µM
# [32] = second compound 10 µM, first compound 0.1 µM
# [33] = second compound 10 µM, first compound 0.316 µM
# [34] = second compound 10 µM, first compound 1 µM
# [35] = second compound 10 µM, first compound 3.16 µM
# [36] = second compound 10 µM, first compound 10 µM
# 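Further: spheroids exposed to agents for 7 days before readout.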
# 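Wherever viability, T/C is given: percent viability relative to DMSO vehicle control taken as 100%.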
smiles,measurement,setting,value
CC1COCCN1c1cc(C2(O)CC3CCC(C2)O3)c2cnn(-c3ccn[nH]3)c2n1 (stereo unspecified) + CN(C)c1ccc(Nc2c3ccc(NC(=O)CCN4CCCC4)cc3nc3cc(NC(=O)CCN4CCCC4)ccc23)cc1,IC50,second compound 0.0316 µM,< 31.6 nM
same,IC50,second compound 0.1 µM,< 31.6 nM
same,IC50,second compound 0.316 µM,< 31.6 nM
same,IC50,second compound 1 µM,< 31.6 nM
same,IC50,second compound 3.16 µM,< 31.6 nM
same,IC50,second compound 10 µM,< 31.6 nM
same,"viability, T/C",[1],30%
same,"viability, T/C",[2],13.9%
same,"viability, T/C",[3],8.88%
same,"viability, T/C",[4],7.25%
same,"viability, T/C",[5],6.14%
same,"viability, T/C",[6],5.19%
same,"viability, T/C",[7],31.5%
same,"viability, T/C",[8],15.1%
same,"viability, T/C",[9],8.31%
same,"viability, T/C",[10],6.53%
same,"viability, T/C",[11],6.56%
same,"viability, T/C",[12],4.3%
same,"viability, T/C",[13],29.9%
same,"viability, T/C",[14],14.4%
same,"viability, T/C",[15],10.4%
same,"viability, T/C",[16],7.63%
same,"viability, T/C",[17],5.34%
same,"viability, T/C",[18],4.95%
same,"viability, T/C",[19],29.1%
same,"viability, T/C",[20],16.7%
same,"viability, T/C",[21],9.05%
same,"viability, T/C",[22],6.94%
same,"viability, T/C",[23],7.14%
same,"viability, T/C",[24],4.24%
same,"viability, T/C",[25],28.9%
same,"viability, T/C",[26],13.8%
same,"viability, T/C",[27],9.17%
same,"viability, T/C",[28],7.04%
same,"viability, T/C",[29],7.35%
same,"viability, T/C",[30],4.31%
same,"viability, T/C",[31],20.2%
same,"viability, T/C",[32],13.6%
same,"viability, T/C",[33],7.79%
same,"viability, T/C",[34],6.03%
same,"viability, T/C",[35],5.19%
same,"viability, T/C",[36],3.21%
CC1COCCN1c1cc(C2(S(C)(=N)=O)CC2)nc(-c2ccnc3[nH]ccc23)n1 (stereo unspecified) + CN(C)c1ccc(Nc2c3ccc(NC(=O)CCN4CCCC4)cc3nc3cc(NC(=O)CCN4CCCC4)ccc23)cc1,IC50,second compound 0.0316 µM,584 nM
same,IC50,second compound 0.1 µM,616 nM
same,IC50,second compound 0.316 µM,589 nM
same,IC50,second compound 1 µM,566 nM
same,IC50,second compound 3.16 µM,569 nM
same,IC50,second compound 10 µM,391 nM
same,"viability, T/C",[1],94.2%
same,"viability, T/C",[2],93.2%
same,"viability, T/C",[3],75.4%
same,"viability, T/C",[4],27.5%
same,"viability, T/C",[5],11.2%
same,"viability, T/C",[6],7.5%
same,"viability, T/C",[7],90.1%
same,"viability, T/C",[8],95.4%
same,"viability, T/C",[9],82.3%
same,"viability, T/C",[10],26.4%
same,"viability, T/C",[11],11.1%
same,"viability, T/C",[12],7.72%
same,"viability, T/C",[13],99%
same,"viability, T/C",[14],96.5%
same,"viability, T/C",[15],79.8%
same,"viability, T/C",[16],24.7%
same,"viability, T/C",[17],9.67%
same,"viability, T/C",[18],7.15%
same,"viability, T/C",[19],86%
same,"viability, T/C",[20],98.5%
same,"viability, T/C",[21],76%
same,"viability, T/C",[22],24.1%
same,"viability, T/C",[23],10.8%
same,"viability, T/C",[24],7.23%
same,"viability, T/C",[25],91.4%
same,"viability, T/C",[26],94.9%
same,"viability, T/C",[27],70.1%
same,"viability, T/C",[28],29.9%
same,"viability, T/C",[29],13%
same,"viability, T/C",[30],7.64%
same,"viability, T/C",[31],99.6%
same,"viability, T/C",[32],87.9%
same,"viability, T/C",[33],57.1%
same,"viability, T/C",[34],20.3%
same,"viability, T/C",[35],9.51%
same,"viability, T/C",[36],5%
COc1ccc([C@@H](O)c2cc(-c3ncnc4cc(N5CCOCC5)ccc34)c(F)cc2Cl)nn1 + CN(C)c1ccc(Nc2c3ccc(NC(=O)CCN4CCCC4)cc3nc3cc(NC(=O)CCN4CCCC4)ccc23)cc1,IC50,second compound 0.0316 µM,> 10000 nM
same,IC50,second compound 0.1 µM,> 10000 nM
same,IC50,second compound 0.316 µM,> 10000 nM
same,IC50,second compound 1 µM,8580 nM
same,IC50,second compound 3.16 µM,2950 nM
same,IC50,second compound 10 µM,1140 nM
same,"viability, T/C",[1],104%
same,"viability, T/C",[2],98.7%
same,"viability, T/C",[3],103%
same,"viability, T/C",[4],85.5%
same,"viability, T/C",[5],88%
same,"viability, T/C",[6],58.1%
same,"viability, T/C",[7],86.8%
same,"viability, T/C",[8],100%
same,"viability, T/C",[9],94.4%
same,"viability, T/C",[10],94.7%
same,"viability, T/C",[11],63.5%
same,"viability, T/C",[12],54.7%
same,"viability, T/C",[13],92.2%
same,"viability, T/C",[14],107%
same,"viability, T/C",[15],115%
same,"viability, T/C",[16],95.5%
same,"viability, T/C",[17],76%
same,"viability, T/C",[18],56.3%
same,"viability, T/C",[19],88.9%
same,"viability, T/C",[20],106%
same,"viability, T/C",[21],98%
same,"viability, T/C",[22],86.5%
same,"viability, T/C",[23],68.8%
same,"viability, T/C",[24],47%
same,"viability, T/C",[25],93.6%
same,"viability, T/C",[26],96.3%
same,"viability, T/C",[27],96.9%
same,"viability, T/C",[28],73.9%
same,"viability, T/C",[29],50.1%
same,"viability, T/C",[30],33.4%
same,"viability, T/C",[31],107%
same,"viability, T/C",[32],85.9%
same,"viability, T/C",[33],85.7%
same,"viability, T/C",[34],47.5%
same,"viability, T/C",[35],31.3%
same,"viability, T/C",[36],13.5%
